The structures appear in SMILES notation.

The data set in a line: physchem.
For `CCN(CC(O)CO)C(C)CO` (stereo not shown) [EHMEAPD, 3-[ethyl(2-hydroxy-1-methylethyl)amino]-1,2-propanediol], the pKa (as a rule, the negative logarithm of the acid dissociation constant) was 8.62.
Regarding `CCCCN(CCO)CC(O)CO` (stereo not shown) [HEBAPD], the pKa came to 8.54.
For the molecule `CCN(CCO)CC(O)CO` (stereo not shown) [HEEAPD], the pKa was 8.54.
As to `CN(CCO)CC(O)CO` (stereo not shown) [HEMAPD], the pKa was 8.45.
The result for `CCCN(CCO)CC(O)CO` (stereo not shown) [HEPAPD] reads 8.54.
As to `CC(CO)N(C)CC(O)CO` (stereo not shown) [HMEMAPD, 3-[(2-hydroxy-1-methylethyl)methylamino]-1,2-propanediol], the pKa amounted to 8.53.
`CCC(CO)N(C)CC(O)CO` (stereo not shown) [HMPMAPD, 3-[[1-(hydroxymethyl)propyl]methylamino]-1,2-propanediol]: the pKa stood at 8.53.

Source of the values: patent US20240367095A1, “TERTIARY ALKANOLAMINE FOR GAS TREATING” (Dow Global Technologies LLC, priority 2021, published 2024).
